ChEMBL document CHEMBL1138590, “Discovery of novel dihydro-9,10-ethano-anthracene carboxamides as glucocorticoid receptor modulators” (Bioorg Med Chem Lett, 2009)

Assays:
Glucocorticoid receptor [1] = biological target: T1, Glucocorticoid receptor (Homo sapiens, UniProt P04150); experiment: Transrepression activity at GR in IL-1-beta-stimulated human A549 cells assessed as inhibition of NF-kappaB-dependent E-selectin transcription by luciferase reporter gene assay; format: cell-based
T1 sequence (P04150 whole entry): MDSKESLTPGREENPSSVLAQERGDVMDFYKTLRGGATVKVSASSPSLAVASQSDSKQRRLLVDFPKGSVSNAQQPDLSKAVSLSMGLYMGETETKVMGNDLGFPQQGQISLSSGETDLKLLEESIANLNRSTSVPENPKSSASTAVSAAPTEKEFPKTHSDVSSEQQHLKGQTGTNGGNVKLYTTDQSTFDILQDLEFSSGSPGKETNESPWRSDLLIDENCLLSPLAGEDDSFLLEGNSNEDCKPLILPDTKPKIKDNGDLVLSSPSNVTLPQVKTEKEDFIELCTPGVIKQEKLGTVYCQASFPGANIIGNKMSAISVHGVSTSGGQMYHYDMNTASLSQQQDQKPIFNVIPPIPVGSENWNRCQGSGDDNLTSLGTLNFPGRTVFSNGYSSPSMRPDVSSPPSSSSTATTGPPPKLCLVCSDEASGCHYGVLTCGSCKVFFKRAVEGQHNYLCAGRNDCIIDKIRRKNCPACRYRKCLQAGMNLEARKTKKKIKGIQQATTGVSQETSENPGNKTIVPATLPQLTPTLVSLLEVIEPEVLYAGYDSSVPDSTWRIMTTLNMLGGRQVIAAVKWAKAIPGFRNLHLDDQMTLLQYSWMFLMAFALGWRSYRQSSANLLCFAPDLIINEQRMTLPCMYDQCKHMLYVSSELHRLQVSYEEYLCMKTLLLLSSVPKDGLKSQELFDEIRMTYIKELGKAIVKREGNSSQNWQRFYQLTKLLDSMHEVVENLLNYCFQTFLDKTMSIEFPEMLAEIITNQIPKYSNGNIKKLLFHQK

Glucocorticoid receptor [2] = biological target: T1, Glucocorticoid receptor; experiment: Displacement of FITC-dexamethasone from human recombinant glucocorticoid receptor alpha by fluorescence polarization assay
Glucocorticoid receptor [3] = biological target: T1, Glucocorticoid receptor; experiment: Transrepression activity at GR in PMA-stimulated human A549 cells assessed as inhibition of AP1 response element-induced luciferase reporter gene activity; format: cell-based
Glucocorticoid receptor [4] = biological target: T1, Glucocorticoid receptor; experiment: Agonist activity at GR ligand binding domain expressed in human NP1 cells assessed as glucocorticoid response element transactivation by GAL4 luciferase reporter gene assay; format: cell-based
[5] = biological target: T2, Mineralocorticoid receptor (Homo sapiens) (UniProt P08235); experiment: Antagonist activity at mineralocorticoid receptor in human A549 cells assessed as inhibition of 1.25 nM aldosterone-induced effect at 0.1 uM; format: functional, cell-based
T2 sequence (whole entry): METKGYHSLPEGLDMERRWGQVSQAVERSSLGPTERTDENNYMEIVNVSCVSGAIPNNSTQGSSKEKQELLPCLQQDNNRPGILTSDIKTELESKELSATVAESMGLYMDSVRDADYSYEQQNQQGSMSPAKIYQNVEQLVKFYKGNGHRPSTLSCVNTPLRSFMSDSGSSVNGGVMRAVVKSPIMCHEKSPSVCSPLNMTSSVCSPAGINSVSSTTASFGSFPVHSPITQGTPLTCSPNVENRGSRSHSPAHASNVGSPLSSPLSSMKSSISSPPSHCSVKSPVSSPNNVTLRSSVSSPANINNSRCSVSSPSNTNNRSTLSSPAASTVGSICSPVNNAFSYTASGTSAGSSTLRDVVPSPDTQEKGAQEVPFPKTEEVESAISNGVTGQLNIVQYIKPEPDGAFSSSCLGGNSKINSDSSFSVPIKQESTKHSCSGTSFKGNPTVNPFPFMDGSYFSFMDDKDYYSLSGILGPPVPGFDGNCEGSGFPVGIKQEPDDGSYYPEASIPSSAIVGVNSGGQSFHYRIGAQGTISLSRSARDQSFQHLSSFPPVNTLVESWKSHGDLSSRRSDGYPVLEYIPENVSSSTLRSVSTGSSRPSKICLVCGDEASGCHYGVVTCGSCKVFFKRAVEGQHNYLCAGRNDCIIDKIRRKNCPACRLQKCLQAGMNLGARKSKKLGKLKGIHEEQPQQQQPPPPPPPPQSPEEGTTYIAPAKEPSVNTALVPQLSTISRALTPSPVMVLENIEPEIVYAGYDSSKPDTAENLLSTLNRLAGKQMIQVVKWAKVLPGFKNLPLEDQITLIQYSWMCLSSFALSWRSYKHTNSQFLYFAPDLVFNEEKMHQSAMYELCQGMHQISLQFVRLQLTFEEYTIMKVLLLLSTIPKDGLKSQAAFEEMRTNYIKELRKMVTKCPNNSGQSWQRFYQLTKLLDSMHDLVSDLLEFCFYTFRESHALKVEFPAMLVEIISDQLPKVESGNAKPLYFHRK

| SMILES | EC50 (Glucocorticoid receptor [1]) [nM] | Ki (Glucocorticoid receptor [2]) [nM] | EC50 (Glucocorticoid receptor [3]) [nM] | EC50 (Glucocorticoid receptor [4]) [nM] | inhibition [5] [%] |
| --- | --- | --- | --- | --- | --- |
| C[C@]1(C(=O)Nc2nccs2)CC2(C#N)c3ccccc3C1c1ccccc12 | > 5000 | 37.8 | 837 | > 10000 |  |
| Cc1cnc(NC(=O)C2(C)CC3c4ccccc4C2c2ccccc23)s1 (stereo in doubt; 3) |  | 12.7 | 610 |  |  |
| C[C@]1(C(=O)Nc2nccs2)CC2c3ccccc3C1c1ccccc12 |  | 26.2 | 544 |  |  |
| CC12CC(C)(C(=O)Nc3nncs3)C(c3ccccc31)c1ccccc12 (stereo in doubt; 18b) | 152 | 49.7 | 3830 | > 2500 |  |
| CC1(C(=O)Nc2ccc([N+](=O)[O-])cc2O)CC2c3ccccc3C1c1ccccc12 (stereo not given) |  | 158 | > 5000 |  |  |
| CC1(C(=O)Nc2nccs2)CC2(C#N)c3ccccc3C1c1ccccc12 (stereo not given) | 426 |  | 331 | > 10000 |  |
| CC1(C(=O)Nc2nccs2)CC2c3ccccc3C1(C#N)c1ccccc12 (stereo not given) | 678 |  | 874 | > 10000 |  |
| CC12CC(C)(C(=O)Nc3nncs3)C(c3ccccc31)c1ccccc12 (single isomer, unassigned; isomer A) |  |  |  |  | 53 |
| CCC1(C(=O)Nc2nccs2)CC2c3ccccc3C1c1ccccc12 (stereo not given) |  | 3.9 | > 2500 |  |  |
| CC1(C(=O)Nc2nccs2)CC2([N+](=O)[O-])c3ccccc3C1c1ccccc12 (stereo not given) | > 5000 |  | 1070 | > 10000 |  |
| CC1(C(=O)Nc2nccs2)CC2(Cl)c3ccccc3C1c1ccccc12 (stereo not given) | 12.3 |  | 229 | 322 |  |
| O=C(Nc1nccs1)C1(CCO)CC2c3ccccc3C1c1ccccc12 (stereo not given) |  | 303 | > 5000 |  |  |
| CC1(C(=O)Nc2ncc[nH]2)CC2c3ccccc3C1c1ccccc12 (stereo not given) |  | 92.6 | > 5000 |  |  |
| CC1(C(=O)Nc2nncs2)CC2c3ccccc3C1c1ccccc12 (stereo not given) |  | 5.4 | 295 |  |  |
| CN(C(=O)C1(C)CC2c3ccccc3C1c1ccccc12)c1nccs1 (stereo not given) |  | 82.5 | 1240 |  |  |
| CC12CC(C)(C(=O)Nc3nccs3)C(c3ccccc31)c1ccccc12 (stereo in doubt; 17) | 8.3 |  | 14.7 | 121 |  |
| CC1(C(=O)Nc2nccs2)CC2(Br)c3ccccc3C1c1ccccc12 (stereo not given) | 9.9 |  | 119 | 175 |  |
| CC12CC(C)(C(=O)Nc3nccs3)C(c3ccccc31)c1ccccc12 (stereo in doubt; 17a) |  |  |  |  | 49 |
| CC1(C(=O)Nc2nccs2)CC2c3ccccc3C1([N+](=O)[O-])c1ccccc12 (stereo not given) | > 5000 |  | 1160 | > 10000 |  |
| Cc1nc(NC(=O)C2(C)CC3c4ccccc4C2c2ccccc23)sc1C (stereo not given) |  | 22.6 | 923 |  |  |
| CC12CC(C)(C(=O)Nc3nncs3)C(c3ccccc31)c1ccccc12 (stereo in doubt; 18) | 5.2 |  | 16.9 | > 10000 |  |
| Cc1cnc(NC(=O)C2(C)CC3c4ccccc4C2c2ccccc23)s1 (single isomer, unassigned; isomer B) |  | 187 | 972 |  |  |
| CC12CC(C)(C(=O)Nc3nccs3)C(c3ccccc31)c1ccccc12 (single isomer, unassigned; isomer B) | > 5000 | 67.8 | 800 | > 10000 |  |
| Cc1csc(NC(=O)C2(C)CC3c4ccccc4C2c2ccccc23)n1 (stereo not given) |  | 8.7 | > 5000 |  |  |
